Experiments:
[1] = test system: Kasumi-1 AML cancer cell line; test: Kasumi-1 AML cell line proliferation assay (Cell-MTS assay); type: cell-based; details: Homo sapiens, Kasumi-1 cells, 168 hours
From the text: Colorimetric cellular assay to assess the ability of LSD-1 small molecule inhibitors to effect the proliferation of the established AML cancer cell line Kasumi-1.
This Cell-MTS assay is a 7-day plate based colorimetric assay which quantifies the amount of newly generated NADH in the presence and absence of test compound. These NADH levels are used as a proxy for the quantification of cancer cell proliferation.
The established cancer cell line Kasumi-1 with a verified p53 mutation were purchased from American Type Culture Collection (ATCC) and routinely passaged according to ATCC published protocols. For routine assay these cells were seeded at a density of 20,000 cells per 96-well. 24 hours after plating, cells received an 11 point dilution of test compound with final concentration ranges from 100 LM to 2.0 nM. Cells are incubated in the presence of compound for 168 hours at 37° C., 5% CO2. At the end of this compound incubation period, 80 μl of media is removed and 20 μL of CellTiter 96® AQueous Non-Radioactive Cell Proliferation Assay solution (Promega) is added. The cells are incubated until the OD490 is >0.6. IC50 values are calculated using the IDBS XLfit software package and include background subtracted OD490 values and normalization to DMSO controls.
Table 5 provides the Kasumi-1 cellular IC50 values of various substituted heterocyclic compounds disclosed herein.

[2] = biological target: full-length human LSD1 (Homo sapiens (Human), UniProt O60341); test: In vitro enzyme inhibition assay LSD-1 (TR-FRET); type: biochemical; details: H3K4me1-biotin peptide
In short: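 Demethylase activity of full-length human LSD1 was detected by TR-FRET after 1 hour incubation at room temperature. Excitation was at 320 nm, with emission at 615 nm and 665 nm. IC50 values were derived from the inhibition data.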

[3] = test system: CD11b expression in THP-1 (AML) cells; test: LSD1 CD11b cellular assay (flow cytometry); type: cell-based; details: Homo sapiens, 96 h, THP-1 cells, 4 days
In short: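 THP-1 cells were exposed to serially diluted compounds (0.2% DMSO final) for 4 days at 37 °C. CD11b expression was measured by flow cytometry with DAPI staining. The percent of CD11b-positive cells per concentration gave the IC50 curve.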

Row | Compound | IC50 [2] [nM] | IC50 [3] [nM] | IC50 [1] [nM]
1 | Cc1c(C(=O)N2CC[C@H](N(C)C)C2)nc(-c2ccc(C#N)c(F)c2)n1-c1ccc2nn(C)cc2c1 [Example 94, 4-[4-[(3S)-3-(Dimethylamino)pyrrolidine-1-carbonyl]-5-methyl-1-(2-methylindazol-5-yl)imidazol-2-yl]-2-fluorobenzonitrile] |  |  | ≤ 100
2 | COc1ccc(-n2c(-c3ccc(C#N)c(F)c3)nc(C(=O)N3CCC[C@@H](N)C3)c2C)cc1 [Example 12, 4-[4-[(3R)-3-aminopiperidine-1-carbonyl]-1-(4-methoxyphenyl)-5-methylimidazol-2-yl]-2-fluorobenzonitrile] |  |  | ≤ 100
3 | COc1ccc(-n2c(-c3ccc(C#N)c(F)c3)nc(C(=O)N3CC(CN)C3)c2C)cc1F [Example 88, 4-[4-[3-(Aminomethyl)azetidine-1-carbonyl]-1-(3-fluoro-4-methoxyphenyl)-5-methylimidazol-2-yl]-2-fluorobenzonitrile] |  |  | ≤ 100
4 | COc1ccc(-n2c(-c3ccc(C#N)c(F)c3)nc(C(=O)N3CC[C@H](N)C3)c2C)cc1F [Example 18, 4-[4-[(3S)-3-aminopyrrolidine-1-carbonyl]-1-(3-fluoro-4-methoxyphenyl)-5-methylimidazol-2-yl]-2-fluorobenzonitrile] |  |  | ≤ 100
5 | COc1ccc(-n2c(-c3ccc(C#N)c(F)c3)nc(C(=O)N3CCC[C@@H](N)C3)c2C)cc1F [Example 16, 4-[4-[(3R)-3-aminopiperidine-1-carbonyl]-1-(3-fluoro-4-methoxyphenyl)-5-methylimidazol-2-yl]-2-fluorobenzonitrile] |  |  | ≤ 100
6 | Cc1c(C(=O)N[C@@H]2CCCN(C)C2)nc(-c2ccc(C#N)c(F)c2)n1-c1ccc2nn(C)cc2c1 [Example 60, 2-(4-Cyano-3-fluorophenyl)-5-methyl-1-(2-methylindazol-5-yl)-N-[(3R)-1-methylpiperidin-3-yl]imidazole-4-carboxamide] | < 100 | < 100 | 
7 | CN[C@H]1CCN(C(=O)c2nc(-c3ccc(C#N)c(F)c3)n(-c3cc(F)c4nn(C)cc4c3)c2C)C1 [Example 51, 2-Fluoro-4-[1-(7-fluoro-2-methylindazol-5-yl)-5-methyl-4-[(3S)-3-(methylamino)pyrrolidine-1-carbonyl]imidazol-2-yl]benzonitrile] | < 100 | < 100 | 
8 | Cn1c(C(=O)N2CCC[C@@H](N)C2)cc(-c2ccc(C#N)cc2)c1-c1ccncc1 [Example 6, 4-[5-(3-(R)-amino-piperidine-1-carbonyl)-1-methyl-2-pyridin-4-yl-1H-pyrrol-3-yl]-benzonitrile] | < 100 | < 100 | 
9 | Cc1c(C(=O)N2CC[C@H](N)C2)nc(-c2ccc(C#N)c(F)c2)n1-c1ccc(C2CC2)nc1 [Example 79, 4-[4-[(3S)-3-Aminopyrrolidine-1-carbonyl]-1-(6-cyclopropylpyridin-3-yl)-5-methylimidazol-2-yl]-2-fluorobenzonitrile] | < 100 | < 100 | 
10 | Cc1c(C(=O)N2CCC[C@@H](N)C2)nc(-c2ccc(C#N)c(F)c2)n1-c1cc2cn(C)nc2cc1F [Example 47, 4-[4-[(3R)-3-Aminopiperidine-1-carbonyl]-1-(6-fluoro-2-methylindazol-5-yl)-5-methylimidazol-2-yl]-2-fluorobenzonitrile] | < 100 | < 100 | 

Now from value to compound, other results behind:

Row | IC50 [2] [nM] | IC50 [3] [nM] | Compound | IC50 [1] [nM]
11 | < 100 | < 100 | CN[C@@H]1CCCN(C(=O)c2nc(-c3ccc(C#N)c(F)c3)n(-c3ccc(OC)cc3)c2C)C1 [Example 70, 2-Fluoro-4-[1-(4-methoxyphenyl)-5-methyl-4-[(3R)-3-(methylamino)piperidine-1-carbonyl]imidazol-2-yl]benzonitrile] | ≤ 100
12 | < 100 | < 100 | CN[C@H]1CCN(C(=O)c2nc(-c3ccc(C#N)c(F)c3)n(-c3ccc(OC)c(F)c3)c2C)C1 [Example 64, 2-Fluoro-4-[1-(3-fluoro-4-methoxyphenyl)-5-methyl-4-[(3S)-3-(methylamino)pyrrolidine-1-carbonyl]imidazol-2-yl]benzonitrile] | ≤ 100
13 | < 100 | < 100 | Cc1c(C(=O)N2CC[C@H](N(C)C)C2)nc(-c2ccc(C#N)c(F)c2)n1-c1ccc2nn(C)c(Cl)c2c1 [Example 96, 4-[1-(3-Chloro-2-methylindazol-5-yl)-4-[(3S)-3-(dimethylamino)pyrrolidine-1-carbonyl]-5-methylimidazol-2-yl]-2-fluorobenzonitrile] | ≤ 100
14 | < 100 | < 100 | COc1ccc(-n2cc(C(=O)N3CC[C@H](N)C3)nc2-c2ccc(C#N)c(F)c2)cc1F [Example 20, 4-[4-[(3S)-3-aminopyrrolidine-1-carbonyl]-1-(3-fluoro-4-methoxyphenyl)imidazol-2-yl]-2-fluorobenzonitrile] | 
15 | < 100 | < 100 | Cc1ccc(-c2c(-c3ccc(C#N)cc3)cc(C(=O)N3CCC[C@@H](N)C3)n2C)cc1 [Example 1, 4-[5-(3-(R)-amino-piperidine-1-carbonyl)-1-methyl-2-p-tolyl-1H-pyrrol-3-yl]-benzonitrile] | 
16 | < 100 | < 100 | Cn1cc2cc(-c3c(-c4ccc(C#N)c(F)c4)cc(C(=O)NC[C@@H]4CCNC4)n3C)ccc2n1 [Example 40, N-[((3R)pyrrolidin-3-yl)methyl][4-(4-cyano-3-fluorophenyl)-1-methyl-5-(2-methyl(2H-indazol-5-yl))pyrrol-2-yl]carboxamide] | 
17 | < 100 | < 100 | Cn1cc2cc(-c3c(-c4ccc(C#N)c(F)c4)cc(C(=O)N4CCC[C@@H](N)C4)n3C)ccc2n1 [Example 29, 4-{5-[((3R)-3-aminopiperidyl)carbonyl]-1-methyl-2-(2-methyl(2H-indazol-5-yl))pyrrol-3-yl}-2-fluorobenzenecarbonitrile] | 
18 | < 100 | < 100 | Cc1ccc(-c2c(-c3ccc(C#N)c(F)c3)cc(C(=O)N3CCC[C@@H](N)C3)n2CCO)cc1 [Example 4, 4-[5-(3-(R)-amino-piperidine-1-carbonyl)-1-(2-hydroxy-ethyl)-2-p-tolyl-1H-pyrrol-3-yl]-2-fluoro-benzonitrile] | 
19 | < 100 | 100 to 1000 | COc1ccc(-n2c(-c3ccc(C#N)c(F)c3)nc(C(=O)N[C@@H]3CCCNC3)c2F)cc1F [Example 86, 2-(4-Cyano-3-fluorophenyl)-5-fluoro-1-(3-fluoro-4-methoxyphenyl)-N-[(3R)-piperidin-3-yl]imidazole-4-carboxamide] | 
20 | < 100 | < 100 | COc1ccc(-c2c(-c3ccc(C#N)c(F)c3)cc(C(=O)N3CCC[C@@H](N)C3)n2CCCC(N)=O)cc1 [Example 42, 4-{5-[((3R)-3-aminopiperidyl)carbonyl]-3-(4-cyano-3-fluorophenyl)-2-(4-methoxyphenyl)pyrrolyl} butanamide] | 
21 | < 100 | < 100 | CNCCNC(=O)c1cc(-c2ccc(C#N)c(F)c2)c(-c2ccc3nn(C)cc3c2)n1C [Example 32, [4-(4-cyano-3-fluorophenyl)-1-methyl-5-(2-methyl(2H-indazol-5-yl))pyrrol-2-yl]-N-[2-(methylamino)ethyl]carboxamide] | 
22 | < 100 | 100 to 1000 | COc1ccc(-n2c(-c3ccc(C#N)c(F)c3)nc(C(=O)N3CC[C@@H](N)C3)c2C)cc1 [Example 13, 4-[4-[(3R)-3-aminopyrrolidine-1-carbonyl]-1-(4-methoxyphenyl)-5-methylimidazol-2-yl]-2-fluorobenzonitrile] | 
